The source of these data is patent US20190315966A1, “COMPOUNDS FOR THE DETECTION OF SENESCENT CELLS” (THE UNIVERSITY OF MANCHESTER, priority 2016, published 2019).

In general, melting point refers to the temperature of the solid-liquid transition.

The structures appear in SMILES notation.

For series [1], the system named is lipofuscin rich cells in human seminal vesicle and human liver with steatohepatitis. As to the kind of experiment: Control staining of reference tissues with high lipofuscin content (seminal vesicle, liver with steatohepatitis). The following applies: human seminal vesicle and liver with steatohepatitis sections. The method, then: (§1) Tissue sections were obtained from paraffin embedded, formalin fixed: (a) human seminal vesicle and (b) human liver with steatohepatitis that have high content of lipofusin making them ideal reference (control) tissues to test the SBB assay. Subsequently, they were immobilized on glass microscopy slides by standard procedures and processed as follows: • a. Deparaffinization for 5 min at room temperature in xylene. • b. Gradual rehydration in solutions of descending concentration of ethanol (100%, 80%, 70%, 50% v/v) and finally in TBS (Tris-buffered saline) or PBS (Phosphate-buffered saline) solution. • c. The SSB dye was diluted in 70% ethanol (v/v), filtered and then applied on tissue sections for 10 min. • d. Quick wash in 50% (v/v) ethanol. • e. Transfer and wash in TBS or PBS solution. • f. Counterstain with Hematoxylin or Nuclear Fast Red, followed by mounting with glycerol and sealed with a cover slip. • g. Microscopy observation.
Tissue sections were obtained from paraffin embedded, formalin fixed: (a) human seminal vesicle and (b) human liver with steatohepatitis that have high content of lipofusin making them ideal reference (control) tissues to test the performance of the LG9 compound. Subsequently, they were immobilized on glass microscopy slides by standard procedures and processed as follows: • a. Deparaffinization for 5 min at room temperature in xylene. • b. […]

Series [2] has as its system senescent cells in mouse lung adenomas. As to the kind of experiment: Histochemical staining of paraffin embedded, formalin fixed tissue sections, mouse lung adenomas. Particulars: mouse lung adenoma sections; stain in 70% ethanol, 10 min; microscopy. The method, then:
as §1, with “(a) irradiated” for “(a)”, “laryngeal tumors” for “seminal vesicle”, “mouse lung adenomas,” for “human liver”, “established presence” for “steatohepatitis that have high content”, “senescent cells [as described in Georgakopoulou et al, Aging (Albany N.Y.) 2013].” for “lipofusin making them ideal reference (control) tissues to test the SBB assay.”
(§2) Tissue sections were obtained from paraffin embedded, formalin fixed: (a) irradiated human laryngeal tumors and (b) mouse lung adenomas. Subsequently, they were immobilized on glass microscopy slides by standard procedures and processed as follows: • a. Deparaffinization for 5 min at room temperature in xylene. • b. […]

The test system of the next series is Saos2-p53 Tet-On cells. Nature of the series: Histochemical staining of cell spreads on cover slips. The series is classed as cell-based. The following applies: Saos2-p53 Tet-On cells after p53 induction; stain in ethanol, 10 min. As for the experimental part:
Saos2-p53 Tet-On cells were grown on cover slips and collected after p53 induction to induce senescence. Cover slips were treated as follows: • a. Fixation in ice-cold ethanol or methanol for 4 min. • b. Application of SSB Dye, diluted in ethanol and filtered, on cells for 10 min. • c. Quick wash in 50% (v/v) ethanol. • d. Transfer and wash in TBS or PBS solution. • e. Counterstain with Nuclear Fast Red, followed by mounting with glycerol and sealing with a cover slip. • f. Microscopy observation.
Saos2-p53 Tet-On cells were grown on cover slips and collected […] after p53 induction to induce senescence. Cover slips were treated as follows: • a. Fixation in ice-cold ethanol or methanol for 4 min. • b. Application of the LG9 SBB-analogue, diluted in ethanol and filtered, on cells for 10 min. • c. Quick wash in 50% (v/v) ethanol. • d. Transfer and wash in TBS or PBS solution. • e. Counterstain with Nuclear Fast Red, followed by mounting with glycerol and sealing with a cover slip. • f. Microscopy observation.

For series [3] the following is noted: per Georgakopoulou et al, Aging 2013; cited from earlier work.
For series [4], the system named is senescent cells in irradiated human laryngeal tumors. Nature of the series: Histochemical staining of paraffin embedded, formalin fixed tissue sections, irradiated human laryngeal tumors. The following applies: irradiated human laryngeal tumor sections; stain in 70% ethanol, 10 min; microscopy. As for the experimental part: as §1, with “(a) irradiated” for “(a)”, “laryngeal tumors” for “seminal vesicle”, “mouse lung adenomas,” for “human liver”, “established presence” for “steatohepatitis that have high content”, “senescent cells [as described in Georgakopoulou et al, Aging (Albany N.Y.) 2013].” for “lipofusin making them ideal reference (control) tissues to test the SBB assay.”
as §2

Series [5] has as its system senescent cells in liver biopsies. Nature of the series: Histochemical staining of liver tissue sections with high content of lipofuscin. The method, then: as §1, with “fixed” for “fixed: (a) human seminal vesicle and (b) human”, “biopsies” for “with steatohepatitis”, “lipofusin.” for “lipofusin making them ideal reference (control) tissues to test the SBB assay.”, “LG46 or LG48 analogue” for “SSB dye”

A short description of series [6]: Ethanol solubility of the stain in the histochemical method. Particulars: stain diluted in ethanol / 70% ethanol (v/v) and filtered. The series is classed as physicochemical.
The test system of series [7] is senescent cells in human thymus. As to the kind of experiment: Histochemical staining of human thymus tissue sections (cortex and medulla). Particulars: cortex and medulla of the human thymus. The method, then: as §1, with “fixed,” for “fixed: (a)”, “thymus” for “seminal vesicle”, “specifically from the cortex and medulla” for “(b) human liver with steatohepatitis that have high content”, “this organ.” for “lipofusin making them ideal reference (control) tissues to test the SBB assay.”, “LG9 SBB-analogue” for “SSB dye”

Turning to `CC1(C)Nc2cccc3c(/N=N/c4ccc(/N=N/c5ccccc5)c5ccccc45)ccc(c23)N1` [SBB, Sudan Black B, reference compound], in series [1], the “staining of lipofuscin rich cells” value was “stained cells”. The “staining of senescent cells” value (in [2]; in the series on Saos2-p53 Tet-On cells; in [4]) was “clearly stained” throughout. Further, in series [3], the “ethanol solubility of the SBB stain” value is given as “ethanol solubility problems”.

Compound `CC1(CCCO)Nc2cccc3c(/N=N/c4ccc(/N=N/c5ccccc5)c5ccccc45)ccc(c23)N1` (stereo not drawn) [Example 5, 3-(2-Methyl-6-((E)-(4-((E)-phenyldiazenyl)naphthalen-1-yl)diazenyl)-2,3-dihydro-1H-perimidin-2-yl)propan-1-ol] came in with a melting point of 124 to 126 °C.

As to `CC1(C)Nc2cccc3c(/N=N/c4ccc(/N=N/c5ccc(CCO)cc5)c5ccccc45)ccc(c23)N1` [LG48, 2-(4-((E)-(4-((E)-(2,2-dimethyl-2,3-dihydro-1H-perimidin-6-yl)diazenyl)naphthalen-1-yl)diazenyl)phenyl)ethanol], the staining of cells result in series [5] was “stained cells”. Moreover, in [6], the “ethanol solubility in the staining method” value is “does not encounter the ethanol solubility problems”.

`CC1(C)Nc2cccc3c(/N=N/c4ccc(/N=N/c5cccc(O)c5)c5ccccc45)ccc(c23)N1` [LG46, 3-((E)-(4-((E)-(2,2-dimethyl-2,3-dihydro-1H-perimidin-6-yl)diazenyl)naphthalen-1-yl)diazenyl)phenol]: in series [5], the staining of cells entry is on record as “stained cells”. The “ethanol solubility in the staining method” value in series [6] is reported as “does not encounter the ethanol solubility problems”.

For `CC1(CO)Nc2cccc3c(/N=N/c4ccc(/N=N/c5ccccc5)c5ccccc45)ccc(c23)N1` (stereo not drawn) [LG9, (2-methyl-6-((E)-(4-((E)-phenyldiazenyl)naphthalen-1-yl)diazenyl)-2,3-dihydro-1H-perimidin-2-yl)methanol], the “staining of senescent cells” value in series [7], in series [2] and in series [4] was “stained senescent cells” in each case. Further, the “staining of lipofuscin rich cells” value in series [1] was “stained cells”. Moreover, in series [6], the “ethanol solubility in the staining method” value is recorded as “does not encounter the ethanol solubility problems”.
